Data as given in patent publication US4786638A, “2,4-disubstituted-5-cyano-1,6-dihydro-6-oxo-1-pyrimidineacetic acid aldose reductase inhibitors” (American Home Products Corporation, priority 1987, dated 1988).
Like-named read-outs stand apart in the source and are kept apart here.

How the values were obtained:
[1] = biological target: T1, aldose reductase (Bos taurus, UniProt P16116); experiment: In vitro aldose reductase inhibition (modified Hayman and Kinoshita procedure; enzyme from bovine lens); assay type: biochemical; conditions: for inhibition at 10 µM: read-out: % Inhibition IN VITRO 10^-5 M; for inhibition at 1 µM: read-out: % Inhibition IN VITRO 10^-6 M; for inhibition at 0.1 µM: read-out: % Inhibition IN VITRO 10^-7 M
T1 construct: preparation of the enzyme from bovine lens; from tissue; host or cells: bovine lens
From the text: In the present case the procedure of Hayman and Kinoshita was modified in that the final chromatography step was omitted in the preparation of the enzyme from bovine lens.

[2] = system: galactitol accumulation in the tissues of the lens, sciatic nerve, and diaphragm; experiment: Galactosemic rats: lowering of dulcitol (galactitol) accumulation in lens, sciatic nerve and diaphragm; assay type: in vivo, Male Sprague-Dawley rats; conditions: for % Lowering dulcitol accumulation IN VIVO, D: diaphragm
Description: Such experiments are exemplified hereinbelow after the listing of the following general comments pertaining to these experiments:
Male Sprague-Dawley rats, weighing approximately 90 grams were separated into groups of equal average body weight, with six animals per group. The animals were housed in cages of six animals each and maintained on 12 hour night/12 hour day cycles. Except as otherwise noted, the animals were given food and water ad libitum.
On day 1, the galactosemic control group and all drug-treated groups were given access to 20% galactose chow (Bio-Serv, Frenchtown, N.J.). Animals in the control group were given access to 20% glucose chow (Bio-Serv). Test compounds were administered either in the diet or by gavage as a suspension in 2% Tween 80 in saline. In experiments in which gavage dosing was used, the animals were administered the test compound daily at approximately the same hour each day. Food intake and body weight were determined twice during the course of the experiment. In cases in which the compound was administered in the diet, the average dose was calculated on the basis of the actual average food intake during the experiment.
On the morning of day 5, all animals were fasted; beginning two hours later the animals were decapitated and the lenses, sciatic nerves, and a 50-100 mg portion of the diaphragm were removed, weighed, and frozen in porcelain plates on dry ice.
Only two minor reagent changes were made: (a) the rinsing mixture was an aqueous 5% (w/v) trichloroacetic acid solution and (b) the stock solution was prepared by dissolving 25 mg of dulcitol in 100 mL of an aqueous trichloroacetic acid solution [N.B.: For each experiment the average value found in the tissue from rats fed the glucose diet was subtracted from the individual values found in the corresponding tissue in galactose-fed rats to obtain the amount of polyol accumulated.]
The figures under L, N and D represent the percentage decrease of galactitol accumulation in the tissues of the lens, sciatic nerve, and diaphragm, respectively for treated rats as compared to untreated rats.

[3] = system: aldose reductase; conditions: reported by K. Sestanj et al., U.S. Pat. No. 4,568,693; cited from earlier work
[4] = 20% galactose diet, mg/kg by Example: 1:90, 2:128, 3:141, 4:93, 5:121, 6:110, 7:123, 8:87, 9:92, 10:102, 11:71, 12:84, 13:93, 14:112, 16:100, 17:100, 18:128, 19:117, 20:140, 21:103, 22:151, tolrestat:6
[5] = lens, 20% galactose diet, mg/kg by Example: 1:90, 2:128, 3:141, 4:93, 5:121, 6:110, 7:123, 8:87, 9:92, 10:102, 11:71, 12:84, 13:93, 14:112, 16:100, 17:100, 18:128, 19:117, 20:140, 21:103, 22:151, tolrestat:6

## N#Cc1c(Cc2cccc3ccccc23)nc(-c2cccc3c(Br)cccc23)n(CC(=O)O)c1=O [Example 22]
[1]
  inhibition at 10 µM: 93%
  inhibition at 1 µM: 85%
  inhibition at 0.1 µM: 46%
[2]; [4]
  % Lowering dulcitol accumulation IN VIVO, D: N.S.
[2]; [5]
  % Lowering dulcitol accumulation IN VIVO, L: N.S.

## Cc1nc(N2CCCCC2)c(C#N)c(=O)n1CC(=O)O [Example 13]
[1]
  inhibition at 10 µM: 88%
  inhibition at 1 µM: 75%
  inhibition at 0.1 µM: 52%
[2]; [4]
  % Lowering dulcitol accumulation IN VIVO, D: N.S.
[2]; [5]
  % Lowering dulcitol accumulation IN VIVO, L: N.S.

## N#Cc1c(-c2ccccc2)nc(-c2cccc3ccccc23)n(CC(=O)O)c1=O [Example 19]
[1]
  inhibition at 10 µM: 84%
  inhibition at 1 µM: 68%
  inhibition at 0.1 µM: 29%
[2]; [4]
  % Lowering dulcitol accumulation IN VIVO, D: 21%
[2]; [5]
  % Lowering dulcitol accumulation IN VIVO, L: N.S.

## N#Cc1c(-c2ccccc2)nc(-c2cccc3c(Br)cccc23)n(CC(=O)O)c1=O [Example 20, 5-Cyano-1,6-dihydro-2-(5-bromo-1-naphthalenyl)-6-oxo-4-phenyl-1-pyrimidineacetic Acid]
[1]
  inhibition at 10 µM: 82%
  inhibition at 1 µM: 71%
  inhibition at 0.1 µM: 22%
[2]; [4]
  % Lowering dulcitol accumulation IN VIVO, D: N.S.
[2]; [5]
  % Lowering dulcitol accumulation IN VIVO, L: N.S.

## N#Cc1c(SCc2ccc(Br)cc2)nc(C2CCCCC2)n(CC(=O)O)c1=O [Example 3]
[1]
  inhibition at 10 µM: 96%
  inhibition at 1 µM: 96%
  inhibition at 0.1 µM: 93%
[2]; [4]
  % Lowering dulcitol accumulation IN VIVO, D: N.S.
[2]; [5]
  % Lowering dulcitol accumulation IN VIVO, L: N.S.

## CSc1nc(C(C)C)n(CC(=O)O)c(=O)c1C#N [Example 8]
[1]
  inhibition at 10 µM: 96%
  inhibition at 1 µM: 96%
  inhibition at 0.1 µM: 94%
[2]; [4]
  % Lowering dulcitol accumulation IN VIVO, D: N.S.
[2]; [5]
  % Lowering dulcitol accumulation IN VIVO, L: N.S.

## Cc1nc(-c2cccc3ccccc23)n(CC(=O)O)c(=O)c1C#N [Example 21, 5-cyano-1,6-dihydro-4-methyl-2-(1-naphthalenyl)-6-oxo-1-pyrimidineacetic acid]
[1]
  inhibition at 10 µM: 87%
  inhibition at 1 µM: 55%
  inhibition at 0.1 µM: 14%
[2]; [4]
  % Lowering dulcitol accumulation IN VIVO, D: N.S.
[2]; [5]
  % Lowering dulcitol accumulation IN VIVO, L: 18%

## N#Cc1c(SCC2CCCCC2)nc(C2CCCCC2)n(CC(=O)O)c1=O [Example 7]
[1]
  inhibition at 10 µM: 96%
  inhibition at 1 µM: 95%
  inhibition at 0.1 µM: 90%
[2]; [4]
  % Lowering dulcitol accumulation IN VIVO, D: N.S.
[2]; [5]
  % Lowering dulcitol accumulation IN VIVO, L: N.S.

## N#Cc1c(SCc2ccccc2)nc(C2CCCCC2)n(CC(=O)O)c1=O [Example 2]
[1]
  inhibition at 10 µM: 97%
  inhibition at 1 µM: 96%
  inhibition at 0.1 µM: 91%
[2]; [4]
  % Lowering dulcitol accumulation IN VIVO, D: N.S.
[2]; [5]
  % Lowering dulcitol accumulation IN VIVO, L: N.S.

## Cc1nc(NCc2cccnc2)c(C#N)c(=O)n1CC(=O)O [Example 12, 5-Cyano-1,6-dihydro-2-methyl-6-oxo-4-[(3-pyridinylmethyl)amino]-1-pyrimidineacetic Acid]
[1]
  inhibition at 10 µM: 88%
  inhibition at 1 µM: 90%
  inhibition at 0.1 µM: 30%
[2]; [4]
  % Lowering dulcitol accumulation IN VIVO, D: N.S.
[2]; [5]
  % Lowering dulcitol accumulation IN VIVO, L: N.S.

## COc1ccc2c(C(=S)N(C)CC(=O)O)cccc2c1C(F)(F)F [tolrestat, N-[[6-methoxy-5-(trifluoromethyl)-1-naphthalenyl]-thioxomethyl]-N-methylglycine, reference compound]
[3]
  inhibitor of aldose reductase (in words): effective inhibitor of aldose reductase
[2]; [4]
  % Lowering dulcitol accumulation IN VIVO, D: 90%
[2]; [5]
  % Lowering dulcitol accumulation IN VIVO, L: N.S.

## CSc1nc(C2CCCCC2)n(CC(=O)O)c(=O)c1C#N [Example 1, 5-Cyano-2-cyclohexyl-1,6-dihydro-4-(methylthio)-6-oxo-1-pyrimidineacetic Acid]
[2]
  % Lowering dulcitol accumulation IN VIVO, L: N.S.
[2]; [4]
  % Lowering dulcitol accumulation IN VIVO, D: 42%

## Cc1nc(NCc2ccccc2)c(C#N)c(=O)n1CC(=O)O [Example 17]
[1]
  inhibition at 10 µM: 96%
  inhibition at 1 µM: 90%
  inhibition at 0.1 µM: 78%
[2]; [4]
  % Lowering dulcitol accumulation IN VIVO, D: N.S.
[2]; [5]
  % Lowering dulcitol accumulation IN VIVO, L: N.S.

## N#Cc1c(SCc2ccc(Br)cc2F)nc(C2CCCCC2)n(CC(=O)O)c1=O [Example 4, 4-[[(4-bromo-2-fluorophenyl)methyl]thio]-5-cyano-2-cyclohexyl-1,6-dihydro-6-oxo-1-pyrimidineacetic acid]
[2]; [4]
  % Lowering dulcitol accumulation IN VIVO, D: N.S.
[2]; [5]
  % Lowering dulcitol accumulation IN VIVO, L: 15%

## Cc1nc(N2CCC(Cc3ccccc3)CC2)c(C#N)c(=O)n1CC(=O)O [Example 18]
[1]
  inhibition at 10 µM: 90%
  inhibition at 1 µM: 88%
  inhibition at 0.1 µM: 81%
[2]; [4]
  % Lowering dulcitol accumulation IN VIVO, D: N.S.
[2]; [5]
  % Lowering dulcitol accumulation IN VIVO, L: N.S.

## Cc1nc(NCC2CCCCC2)c(C#N)c(=O)n1CC(=O)O [Example 16]
[1]
  inhibition at 10 µM: 93%
  inhibition at 1 µM: 91%
  inhibition at 0.1 µM: 72%
[2]; [4]
  % Lowering dulcitol accumulation IN VIVO, D: N.S.
[2]; [5]
  % Lowering dulcitol accumulation IN VIVO, L: N.S.

## CC(C)c1nc(SCc2ccccc2)c(C#N)c(=O)n1CC(=O)O [Example 10]
[1]
  inhibition at 10 µM: 96%
  inhibition at 1 µM: 98%
  inhibition at 0.1 µM: 94%
[2]; [4]
  % Lowering dulcitol accumulation IN VIVO, D: 38%
[2]; [5]
  % Lowering dulcitol accumulation IN VIVO, L: N.S.

## Cc1nc(NCCc2ccccc2)c(C#N)c(=O)n1CC(=O)O [Example 15]
[1]
  inhibition at 10 µM: 89%
  inhibition at 1 µM: 88%
  inhibition at 0.1 µM: 71%
[2]; 98 mg/kg
  % Lowering dulcitol accumulation IN VIVO, D: N.S.
[2]; 196 mg/kg
  % Lowering dulcitol accumulation IN VIVO, D: N.S.
[2]; lens, 98 mg/kg
  % Lowering dulcitol accumulation IN VIVO, L: N.S.
[2]; lens, 196 mg/kg
  % Lowering dulcitol accumulation IN VIVO, L: N.S.

## Cc1nc(N2CCN(Cc3ccccc3)CC2)c(C#N)c(=O)n1CC(=O)O [Example 14]
[1]
  inhibition at 10 µM: 92%
  inhibition at 1 µM: 89%
  inhibition at 0.1 µM: 64%
[2]; [4]
  % Lowering dulcitol accumulation IN VIVO, D: N.S.
[2]; [5]
  % Lowering dulcitol accumulation IN VIVO, L: N.S.

## CC(C)Sc1nc(C(C)C)n(CC(=O)O)c(=O)c1C#N [Example 9]
[1]
  inhibition at 10 µM: 96%
  inhibition at 1 µM: 97%
  inhibition at 0.1 µM: 91%
[2]; [4]
  % Lowering dulcitol accumulation IN VIVO, D: 16%
[2]; [5]
  % Lowering dulcitol accumulation IN VIVO, L: N.S.

## CC(C)Sc1nc(C2CCCCC2)n(CC(=O)O)c(=O)c1C#N [Example 6]
[1]
  inhibition at 10 µM: 93%
  inhibition at 1 µM: 92%
  inhibition at 0.1 µM: 90%
[2]; [4]
  % Lowering dulcitol accumulation IN VIVO, D: N.S.
[2]; [5]
  % Lowering dulcitol accumulation IN VIVO, L: N.S.

## CCCCCCSc1nc(C2CCCCC2)n(CC(=O)O)c(=O)c1C#N [Example 5]
[1]
  inhibition at 10 µM: 94%
  inhibition at 1 µM: 95%
  inhibition at 0.1 µM: 96%
[2]; [4]
  % Lowering dulcitol accumulation IN VIVO, D: N.S.
[2]; [5]
  % Lowering dulcitol accumulation IN VIVO, L: N.S.

## CSc1nc(C)n(CC(=O)O)c(=O)c1C#N [Example 11, 5-Cyano-1,6-dihydro-2-methyl-4-(methylthio)-6-oxo-1-pyrimidineacetic Acid]
[1]
  inhibition at 10 µM: 86%
  inhibition at 1 µM: 84%
  inhibition at 0.1 µM: 74%
[2]; [4]
  % Lowering dulcitol accumulation IN VIVO, D: N.S.
[2]; [5]
  % Lowering dulcitol accumulation IN VIVO, L: N.S.
